Test results from paper PMC6021034, “Novel FFA1 (GPR40) agonists containing spirocyclic periphery: polar azine periphery as a driver of potency” (Journal of Enzyme Inhibition and Medicinal Chemistry, 2016).
Where two headings read alike, the source gives them in different places.

Experiments:
FFA1 [1] = details: cited from earlier work
human GPR40 = human GPR40 (Homo sapiens, UniProt O14842); assay: Calcium flux (FLIPR, Fluo-8) agonist assay in CHO cells stably expressing human GPR40; assay type: cell-based; details: for % FFA1 activation at 5 μM: relative to GPR40 activation by 20 μM of GW9509, n = 2
Protocol: Determination of agonistic activity of compounds against FFA1 (GPR40) receptor
CHO cells stably expressing human GPR40 (stable CHO-GPR40 line created at Enamine Ltd., Kyiv, Ukraine) were seeded (12 500 cells/well) into 384-well black-wall, clear-bottom microtiter plates 24 h prior to assay. Cells were loaded for 1 h with fluorescent calcium dye (Fluo-8 Calcium Assay kit, Abcam, ab112129, Cambridge, UK) and tested using fluorometric imaging plate reader (FLIPR Tetra® High Throughput Cellular Screening System, Molecular Devices Corp., Sunnyvale, CA). Maximum change in fluorescence over base line was used to determine agonist response. A potent and selective agonist for FFA1 (GPR40) GW9508 (Selleckchem, S8014) was tested with the test compounds as a positive control. Concentration response curve data were fitted using Molecular Devices ScreenWorks® System Control Software (Molecular Devices). The half-maximal effective concentration was determined from these curves plotted in “% FFA1 activation − log[drug]” coordinates and % maximum efficacy was related to that of the reference compounds GW9508.

FFA1 [2] = test system: FFA1; design: method as in PMID 24900210; details: cited from earlier work
[3] = dose-response (% FFA1 activation) mode, read-out: EC50

Sequence of human GPR40 (O14842 whole entry): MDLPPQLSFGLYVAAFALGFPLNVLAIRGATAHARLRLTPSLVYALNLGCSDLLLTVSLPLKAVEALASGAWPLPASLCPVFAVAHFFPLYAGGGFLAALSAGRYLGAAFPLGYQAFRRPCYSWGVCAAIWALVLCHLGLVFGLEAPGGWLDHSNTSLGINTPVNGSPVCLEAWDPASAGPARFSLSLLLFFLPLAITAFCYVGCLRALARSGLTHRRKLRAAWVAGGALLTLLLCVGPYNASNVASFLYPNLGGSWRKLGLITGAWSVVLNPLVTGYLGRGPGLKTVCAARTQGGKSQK

Molecule | % FFA1 activation at 5 μM (human GPR40) | EC50 (human GPR40; [3]) | also measured
O=C(O)CCc1ccc(OCc2ccc(CN3CCC4(CCCCO4)CC3)cc2)cc1 [Compound 7] |  |  | EC50 (FFA1 [1]; reported earlier): > 20 µM; FFA1 agonist activity (in words) (FFA1 [1]; tested earlier): inactive
Cl.Cl.O=C(O)CCc1ccc(OCc2ccc(CN3CCC4(CC3)CC(CC(=O)NCc3ccncc3)CCO4)cc2)cc1 (stereo not shown) [Compound 4h, 3-[4-({4-[(4-{2-Oxo-2-[(pyridin-4-ylmethyl)amino]ethyl}-1-oxa-9-azaspiro[5.5]undec-9-yl)methyl]benzyl}oxy)phenyl]propanoic acid dihydrochloride] | 10.0% | > 20 µM | 
Cc1cc(OCCCS(C)(=O)=O)cc(C)c1-c1cccc(COc2ccc3c(c2)OC[C@H]3CC(=O)O)c1 [TAK-875, fasiglifam] |  |  | EC50 (FFA1 [2]): 0.014 µM
Cl.Cl.O=C(O)CCc1ccc(OCc2ccc(CN3CCC4(CC3)CC(N3CCCC3)CCO4)cc2)cc1 (stereo not shown) [Compound 4e, 3-[4-({4-[(4-Pyrrolidin-1-yl-1-oxa-9-azaspiro[5.5]undec-9-yl)methyl]benzyl}oxy)phenyl]propanoic acid dihydrochloride] | 9.1% | > 20 µM | 
3-{4-[(4-{[4-(Pyrazin-2-yloxy)-1-oxa-9-azaspiro[5.5]undec-9-yl]methyl}benzyl)oxy]phenyl}propanoic acid dihydrochloride [Compound 4a] | 32.5% |  | 
Cl.Cl.O=C(O)CCc1ccc(OCc2ccc(CN3CCC4(CC3)CC(Oc3ccncc3)CCO4)cc2)cc1 (stereo not shown) [Compound 4d, 3-{4-[(4-{[4-(Pyridin-4-yloxy)-1-oxa-9-azaspiro[5.5]undec-9-yl]methyl}benzyl)oxy]phenyl}propanoic acid dihydrochloride] | 13.6% | > 20 µM | 
CNC(=O)CC1CCOC2(CCN(Cc3ccc(COc4ccc(CCC(=O)O)cc4)cc3)CC2)C1.Cl (stereo not shown) [Compound 4g, 3-(4-{[4-({4-[2-(Methylamino)-2-oxoethyl]-1-oxa-9-azaspiro[5.5]undec-9-yl}methyl)benzyl]oxy}phenyl)propanoic acid hydrochloride] | 9.9% | > 20 µM | 

More lines, main results first:

% FFA1 activation at 5 μM (human GPR40) | EC50 (human GPR40; [3]) | Molecule | also measured
61.4% |  | Cl.Cl.O=C(O)CCc1ccc(OCc2ccc(CN3CCC4(CC3)CC(Oc3ccccn3)CCO4)cc2)cc1 (stereo not shown) [Compound 4c, 3-{4-[(4-{[4-(Pyridin-2-yloxy)-1-oxa-9-azaspiro[5.5]undec-9-yl]methyl}benzyl)oxy]phenyl}propanoic acid dihydrochloride] | Emax (human GPR40; CHO, maximum efficacy relative to GPR40 activation by 20 μM of GW9509, n = 2): 61%; EC50 (human GPR40; Table 2, compounds investigated in this work, read-out: FFA1 EC50): 0.9 µM
80.0% | 1.62 µM | Cl.Cl.O=C(O)CCc1ccc(OCc2ccc(CN3CCC4(CC3)CC(Oc3ncccn3)CCO4)cc2)cc1 (stereo not shown) [Compound 4b, 3-{4-[(4-{[4-(Pyrimidin-2-yloxy)-1-oxa-9-azaspiro[5.5]undec-9-yl]methyl}benzyl)oxy]phenyl} propanoic aciddihydrochloride] | % Efficacy (human GPR40; maximum efficacy relative to GPR40 activation by 20 μM of GW9509, n = 2): 80%
11.6% | > 20 µM | Cl.Cl.O=C(O)CCc1ccc(OCc2ccc(CN3CCC4(CC3)CC(CC(=O)NCc3cccnc3)CCO4)cc2)cc1 (stereo not shown) [Compound 4i, 3-[4-({4-[(4-{2-Oxo-2-[(pyridin-3-ylmethyl)amino]ethyl}-1-oxa-9-azaspiro[5.5]undec-9-yl)methyl]benzyl}oxy)phenyl]propanoic acid dihydrochloride] | 
10.2% | > 20 µM | Cl.Cl.O=C(O)CCc1ccc(OCc2ccc(CN3CCC4(CC3)CC(N3CCOCC3)CCO4)cc2)cc1 (stereo not shown) [Compound 4f, 3-[4-({4-[(4-Morpholin-4-yl-1-oxa-9-azaspiro[5.5]undec-9-yl)methyl]benzyl}oxy)phenyl]propanoic acid dihydrochloride] | 
